The target of assay [1] is T1, KIAA0807(S) (PDZ Domain 1) (Homo sapiens, UniProt Q6P0Q8).
T1 construct: made in house; host or cells: E. coli (DH5alpha, BL21 or JM109)
T1 sequence (Q6P0Q8 with tags, fused parts or gaps): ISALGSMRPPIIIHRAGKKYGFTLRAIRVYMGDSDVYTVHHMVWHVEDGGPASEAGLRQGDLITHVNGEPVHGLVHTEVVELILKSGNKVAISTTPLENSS
Description: G' assay and Kd titration, TABLE 12. The class given is binding. To be noted: for Classification: A450 nm class of biotinylated PL peptide bound, 0 in conc columns = peptide 10 uM, protein 5 ug/ml. The method, then: The third column labeled “Peptide Optimal Concentration” in the tables is a number reflective of the binding interaction between the PL protein and PDZ protein. […] The column labeled “Protein Optimal Concentration” refers to the protein concentration used to assay PL interaction (in ug/ml); a ‘0’ is indicative of 5 ug/ml protein concentration; any other value represents the concentration (in ug/ml) used to determine the dissociation constant for a given interaction.
Finally, the seventh column labeled “Classification” is another measure of the level of binding. In particular, it provides an absorbance value at 450 nm which indicates the amount of PL peptide bound to the PDZ protein. The following numerical values have the following meanings: ‘1’—A450 nm 0-1; ‘2’—A450 nm 1-2; ‘3’—A450 nm 2-3; ‘4’—A450 nm 3-4; ‘5’—A450 nm of 4 more than 2× repeated; ‘0’—A450 nm 0, i.e., not found to interact. Thus, higher numbers indicate stronger interactions.
For convenience, the assay conditions described in this section are referred to as the “G′ assay” and the “G″ assay,” with the specific conditions described in the preceding section on G assays being referred to as the “G^0 assay.” The “G′ assay” is identical to the “G^0 assay” except at step (2) the peptide concentration is 10 uM instead of 20 uM.

Assay [2] deals with T2, PDZ-domain polypeptide (GST/PDZ fusion protein) (Homo sapiens, UniProt Q5TCQ9).
T2 construct: made in house; host or cells: E. coli (DH5alpha, BL21 or JM109)
T2 sequence (Q5TCQ9 1-1481): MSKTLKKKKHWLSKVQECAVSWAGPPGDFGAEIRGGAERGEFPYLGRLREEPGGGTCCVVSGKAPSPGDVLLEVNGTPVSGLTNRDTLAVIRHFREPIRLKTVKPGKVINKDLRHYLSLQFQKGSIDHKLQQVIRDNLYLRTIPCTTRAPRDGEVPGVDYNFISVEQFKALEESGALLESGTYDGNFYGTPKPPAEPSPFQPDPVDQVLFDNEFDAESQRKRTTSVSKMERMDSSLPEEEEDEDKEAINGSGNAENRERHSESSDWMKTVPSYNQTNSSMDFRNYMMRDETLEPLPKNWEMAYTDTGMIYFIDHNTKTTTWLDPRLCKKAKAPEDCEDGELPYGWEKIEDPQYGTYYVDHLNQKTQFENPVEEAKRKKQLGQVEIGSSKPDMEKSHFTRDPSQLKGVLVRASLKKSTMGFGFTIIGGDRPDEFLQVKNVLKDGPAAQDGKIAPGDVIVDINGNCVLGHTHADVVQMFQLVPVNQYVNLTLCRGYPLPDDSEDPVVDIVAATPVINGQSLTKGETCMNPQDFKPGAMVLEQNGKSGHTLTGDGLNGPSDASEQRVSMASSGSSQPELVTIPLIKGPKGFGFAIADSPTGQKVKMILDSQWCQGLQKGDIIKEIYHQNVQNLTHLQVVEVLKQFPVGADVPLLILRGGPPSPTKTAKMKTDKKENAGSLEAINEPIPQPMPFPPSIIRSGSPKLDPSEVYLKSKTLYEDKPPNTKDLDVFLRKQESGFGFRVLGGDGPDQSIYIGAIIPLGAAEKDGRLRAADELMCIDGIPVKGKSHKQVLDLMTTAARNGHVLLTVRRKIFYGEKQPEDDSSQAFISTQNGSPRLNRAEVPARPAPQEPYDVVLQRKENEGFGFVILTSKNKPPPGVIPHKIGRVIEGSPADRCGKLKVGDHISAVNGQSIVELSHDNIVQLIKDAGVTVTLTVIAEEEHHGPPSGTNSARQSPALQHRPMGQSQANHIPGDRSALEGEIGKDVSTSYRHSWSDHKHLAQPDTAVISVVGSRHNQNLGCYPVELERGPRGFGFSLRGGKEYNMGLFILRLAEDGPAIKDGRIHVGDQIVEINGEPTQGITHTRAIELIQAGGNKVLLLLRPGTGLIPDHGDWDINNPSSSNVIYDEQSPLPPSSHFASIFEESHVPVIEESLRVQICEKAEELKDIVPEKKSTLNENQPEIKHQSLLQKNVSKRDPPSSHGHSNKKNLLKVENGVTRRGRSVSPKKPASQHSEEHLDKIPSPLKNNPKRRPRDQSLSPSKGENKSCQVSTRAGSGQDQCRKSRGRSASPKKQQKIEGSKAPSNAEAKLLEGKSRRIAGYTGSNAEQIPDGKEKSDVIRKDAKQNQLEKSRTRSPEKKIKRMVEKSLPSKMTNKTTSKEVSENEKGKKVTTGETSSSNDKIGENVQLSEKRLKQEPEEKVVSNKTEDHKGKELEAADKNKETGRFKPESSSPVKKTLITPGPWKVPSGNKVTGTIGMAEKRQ
Description: Apparent affinity (Kd) by titration of PL peptide in the G assay. The class given is binding. The method in brief:
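A fixed concentration of GST/PDZ fusion protein, 5 ug/ml by default, was mixed in solution with increasing labeled PL peptide (e.g. 0.1 uM-1 mM). Reaction times ranged from 10 minutes to 2 days at 4-37° C. Complexes were separated from free peptide and detected via the label as in the G assay, apparent affinity coming from the saturating concentration.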

Like-named read-outs stand apart in the source and are kept apart here. Ends that are not written are not given here. Peptide text beside a SMILES is read from it. * marks the point of attachment. Biotin = O=C1N[C@H]2[C@H](CS[C@H]2CCCCC(=O)*)N1

As for “ARHRVTSYTSSSVNVSSNL (Biotin-ARHRVTSYTSSSVNVSSNL) [IL-8RB]”, the Classification in assay [1] is given as 1 (A450 nm 0-1).
On to `CC(C)C[C@H](NC(=O)CNC(=O)[C@@H](NC(=O)[C@H](CO)NC(=O)[C@H](CC(N)=O)NC(=O)[C@H](Cc1ccccc1)NC(=O)CNC(=O)[C@H](C)NC(=O)[C@H](C)NC(=O)[C@H](Cc1ccccc1)NC(=O)[C@@H](NC(=O)CCCC[C@@H]1SC[C@@H]2NC(=O)N[C@@H]21)[C@@H](C)O)[C@@H](C)O)C(=O)N1CCC[C@H]1C(=O)N[C@@H](Cc1c[nH]cn1)C(=O)N[C@@H](CO)C(=O)N[C@H](C(=O)N[C@H](C(=O)N[C@@H](CCCNC(=N)N)C(=O)N[C@H](C(=O)O)C(C)C)[C@@H](C)O)[C@@H](C)O` [Neuroligin] (Biotin-TFAAGFNSTGLPHSTTRV-OH; C-terminus assumed), for which the Kd in assay [2] (PDZ KIAA1634, PDZ Domain 1, read-out: Peptide Optimal Conc (Kd by titration of the PL peptide)) is 100 nM. For the same molecule, the Classification in assay [1] is on record as 3 (A450 nm 2-3).
Regarding `CC(C)C[C@H](NC(=O)[C@H](C)NC(=O)[C@@H](NC(=O)[C@@H](NC(=O)[C@H](Cc1c[nH]cn1)NC(=O)[C@H](CC(C)C)NC(=O)CNC(=O)[C@H](CCC(N)=O)NC(=O)CNC(=O)CNC(=O)[C@H](C)NC(=O)[C@H](C)NC(=O)[C@H](CCCNC(=N)N)NC(=O)[C@H](C)NC(=O)[C@H](CO)NC(=O)[C@H](CC(=O)O)NC(=O)[C@H](CC(=O)O)NC(=O)[C@H](Cc1c[nH]c2ccccc12)NC(=O)[C@H](C)NC(=O)CCCC[C@@H]1SC[C@@H]2NC(=O)N[C@@H]21)C(C)C)[C@@H](C)O)C(=O)O` [LPAP] (Biotin-AWDDSARAAGGQGLHVTAL-OH; C-terminus assumed), in assay [1], the Classification is listed as 5 (A450 nm of 4 more than 2× repeated).
`CC[C@H](C)[C@H](NC(=O)[C@H](CCC(N)=O)NC(=O)CCCC[C@@H]1SC[C@@H]2NC(=O)N[C@@H]21)C(=O)N[C@@H](CO)C(=O)N1CCC[C@H]1C(=O)NCC(=O)NCC(=O)N[C@@H](CC(C)C)C(=O)N[C@@H](CCC(=O)O)C(=O)N1CCC[C@H]1C(=O)N1CCC[C@H]1C(=O)N[C@@H](CO)C(=O)N[C@@H](CCC(=O)O)C(=O)N[C@@H](CCCCN)C(=O)N[C@@H](Cc1c[nH]cn1)C(=O)N[C@@H](Cc1ccccc1)C(=O)N[C@@H](CCCNC(=N)N)C(=O)N[C@@H](CCC(=O)O)C(=O)N[C@H](C(=O)N[C@@H](CCC(=O)O)C(=O)N[C@H](C(=O)O)C(C)C)[C@@H](C)O` [Tax]: the Classification in assay [1] is on record as 5 (A450 nm of 4 more than 2× repeated).
On to `CC[C@H](C)[C@H](NC(=O)[C@H](CO)NC(=O)[C@H](CCC(=O)O)NC(=O)[C@H](Cc1ccc(O)cc1)NC(=O)[C@H](CC(=O)O)NC(=O)[C@H](CC(N)=O)NC(=O)[C@H](CCC(=O)O)NC(=O)[C@H](CCCCN)NC(=O)CCCC[C@@H]1SC[C@@H]2NC(=O)N[C@@H]21)C(=O)N[C@@H](CO)C(=O)N[C@@H](CC(=O)O)C(=O)N[C@@H](CC(C)C)C(=O)N[C@@H](CCC(N)=O)C(=O)N[C@@H](CCC(N)=O)C(=O)NCC(=O)N[C@@H](CCCNC(=N)N)C(=O)N[C@@H](CC(=O)O)C(=O)N[C@H](C(=O)N[C@H](C(=O)N[C@@H](CCCNC(=N)N)C(=O)N[C@@H](CC(C)C)C(=O)O)[C@@H](C)O)[C@@H](C)CC` [PAG] (Biotin-KENDYESISDLQQGRDITRL-OH; C-terminus assumed), for which the Classification in assay [1] is 5 (A450 nm of 4 more than 2× repeated). Further, the Kd in assay [1] (titration of PL peptide, KIAA0807(S) protein 0.5 ug/ml, read-out: Peptide Optimal Conc (Kd)) was found to be 350 nM.
For “QATSRNGHSARQHVVADTEL (Biotin-QATSRNGHSARQHVVADTEL) [CD34]”, the Classification in assay [1] is recorded as 3 (A450 nm 2-3).
Take “LASKSAEEGKQIPDSLSTDL (Biotin-LASKSAEEGKQIPDSLSTDL) [Dock2]”: in assay [1], the Classification is listed as 4 (A450 nm 3-4).
`CC(C)C[C@H](NC(=O)[C@H](CC(=O)O)NC(=O)[C@H](CO)NC(=O)[C@H](CCC(=O)O)NC(=O)CNC(=O)[C@H](Cc1ccc(O)cc1)NC(=O)[C@H](CC(C)C)NC(=O)[C@H](C)NC(=O)[C@H](CO)NC(=O)[C@H](CO)NC(=O)[C@H](Cc1ccccc1)NC(=O)[C@H](C)NC(=O)[C@H](C)NC(=O)[C@H](Cc1ccc(O)cc1)NC(=O)[C@H](CC(=O)O)NC(=O)[C@H](CC(C)C)NC(=O)[C@H](C)NC(=O)CNC(=O)[C@@H]1CCCN1C(=O)[C@@H](NC(=O)CCCC[C@@H]1SC[C@@H]2NC(=O)N[C@@H]21)C(C)C)C(=O)O` [a-actinin 2] (Biotin-VPGALDYAAFSSALYGESDL-OH; C-terminus assumed): the Kd in assay [2] (PDZ KIAA1634, PDZ Domain 5, read-out: Peptide Optimal Conc (non-zero value: Kd by titration of the PL peptide)) stood at 2000 nM.
Consider `CC[C@H](C)[C@H](NC(=O)[C@H](CO)NC(=O)[C@@H](NC(=O)[C@H](Cc1ccccc1)NC(=O)[C@H](CO)NC(=O)CCCC[C@@H]1SC[C@@H]2NC(=O)N[C@@H]21)[C@@H](C)O)C(=O)N[C@@H](CC(C)C)C(=O)N[C@H](C(=O)N[C@@H](CS)C(=O)N[C@@H](Cc1c[nH]cn1)C(=O)N[C@@H](CCC(N)=O)C(=O)N[C@@H](CCCNC(=N)N)C(=O)N[C@@H](CCCNC(=N)N)C(=O)N[C@H](C(=O)N[C@@H](CCC(N)=O)C(=O)N[C@@H](CCCNC(=N)N)C(=O)N[C@@H](CCCCN)C(=O)N[C@@H](CCC(=O)O)C(=O)N[C@H](C(=O)N[C@H](C(=O)N[C@@H](C)C(=O)O)C(C)C)[C@@H](C)O)[C@@H](C)O)[C@@H](C)O` [GluR5-2 (rat)], for which the Kd in assay [2] (PDZ KIAA1634, PDZ Domain 1, titration of the PL peptide, read-out: Peptide Optimal Conc (Kd, dissociation constant)) came out at 150 nM.
In the case of `CC[C@H](C)[C@H](NC(=O)[C@H](CC(=O)O)NC(=O)[C@H](CCC(=O)O)NC(=O)[C@H](CCCNC(=N)N)NC(=O)[C@@H](NC(=O)CCCC[C@@H]1SC[C@@H]2NC(=O)N[C@@H]21)[C@@H](C)O)C(=O)N[C@@H](Cc1ccc(O)cc1)C(=O)N[C@H](C(=O)N[C@@H](CC(N)=O)C(=O)N[C@@H](Cc1ccc(O)cc1)C(=O)N1CCC[C@H]1C(=O)N[C@H](C(=O)N[C@@H](Cc1ccccc1)C(=O)N[C@@H](CO)C(=O)N[C@@H](CCCNC(=N)N)C(=O)N[C@@H](CCCNC(=N)N)C(=O)N1CCC[C@H]1C(=O)N[C@@H](CCCCN)C(=O)N[C@H](C(=O)N[C@@H](CCCNC(=N)N)C(=O)N[C@H](C(=O)O)C(C)C)[C@@H](C)O)[C@@H](C)O)C(C)C` [DNAM-1] (Biotin-TREDIYVNYPTFSRRPKTRV-OH; C-terminus assumed), the Kd in assay [2] (Peptide Optimal Conc (Kd by titration of the PL peptide), PDZ KIAA1634, PDZ Domain 1) turned out to be 1000 nM.

Values taken from patent publication US20050282743A1, “Molecular interactions in cells” (Arbor Vita Corporation, priority 2001, published 2005).
